Results from PubChem BioAssay (NCI).
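Exposure lasted 48 hours, with cells grown in 96-well plates and compounds tested at five concentrations. The concentration for full growth arrest is given as TGI.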

Columns and labels:
Assay in all cases: DTP human tumour cell line panel, 48 h
TK-10 renal = test system: TK-10 renal
HOP-92 NSCLC = test system: HOP-92 NSCLC
SK-OV-3 ovarian = test system: SK-OV-3 ovarian
T-47D breast = test system: T-47D breast
OVCAR-4 ovarian = test system: OVCAR-4 ovarian
SR leukemia = test system: SR leukemia
SK-MEL-5 melanoma = test system: SK-MEL-5 melanoma
BT-549 breast = test system: BT-549 breast
SF-268 CNS = test system: SF-268 CNS
UACC-257 melanoma = test system: UACC-257 melanoma
MALME-3M melanoma = test system: MALME-3M melanoma
SF-295 CNS = test system: SF-295 CNS
K-562 leukemia = test system: K-562 leukemia
HL-60(TB) leukemia = test system: HL-60(TB) leukemia
IGROV1 ovarian = test system: IGROV1 ovarian
HCC-2998 colon = test system: HCC-2998 colon
HCT-15 colon = test system: HCT-15 colon
A498 renal = test system: A498 renal
RXF 393 renal = test system: RXF 393 renal
U251 CNS = test system: U251 CNS
PC-3 prostate = test system: PC-3 prostate
LOX IMVI melanoma = test system: LOX IMVI melanoma
CAKI-1 renal = test system: CAKI-1 renal
SNB-19 CNS = test system: SNB-19 CNS
SNB-75 CNS = test system: SNB-75 CNS
DU-145 prostate = test system: DU-145 prostate
NCI-H460 lung = test system: NCI-H460 lung
UO-31 renal = test system: UO-31 renal
HCT-116 colon = test system: HCT-116 colon
MDA-N = test system: MDA-N
SN12C renal = test system: SN12C renal
RPMI-8226 leukemia = test system: RPMI-8226 leukemia
786-0 renal = test system: 786-0 renal
HOP-62 NSCLC = test system: HOP-62 NSCLC
OVCAR-5 ovarian = test system: OVCAR-5 ovarian
ACHN renal = test system: ACHN renal
SW-620 colon = test system: SW-620 colon
CCRF-CEM leukemia = test system: CCRF-CEM leukemia
NCI/ADR-RES ovarian = test system: NCI/ADR-RES ovarian
OVCAR-3 ovarian = test system: OVCAR-3 ovarian
COLO 205 colon = test system: COLO 205 colon
MOLT-4 leukemia = test system: MOLT-4 leukemia
MDA-MB-231 breast = test system: MDA-MB-231 breast
UACC-62 melanoma = test system: UACC-62 melanoma
SK-MEL-28 melanoma = test system: SK-MEL-28 melanoma
MDA-MB-435 = test system: MDA-MB-435
SK-MEL-2 melanoma = test system: SK-MEL-2 melanoma
KM12 colon = test system: KM12 colon
MCF7 breast = test system: MCF7 breast
HS 578T breast = test system: HS 578T breast
A549 NSCLC = test system: A549 NSCLC
NCI-H23 lung = test system: NCI-H23 lung
SF-539 CNS = test system: SF-539 CNS
HT29 colon = test system: HT29 colon
M14 melanoma = test system: M14 melanoma
NCI-H522 lung = test system: NCI-H522 lung
NCI-H226 lung = test system: NCI-H226 lung
EKVX NSCLC = test system: EKVX NSCLC
OVCAR-8 ovarian = test system: OVCAR-8 ovarian

[N-]=[N+]=NC1(c2ccccc2)C(=O)Nc2ccccc2C1=O (configuration not stated)
TGI (TK-10 renal): > 100 µM
TGI (HOP-92 NSCLC): 84.5 µM
TGI (SK-OV-3 ovarian): > 100 µM
TGI (T-47D breast): > 100 µM
TGI (OVCAR-4 ovarian): > 100 µM
TGI (SR leukemia): > 100 µM
TGI (SK-MEL-5 melanoma): 33.1 µM
TGI (BT-549 breast): 34.8 µM
TGI (SF-268 CNS): > 100 µM
TGI (UACC-257 melanoma): > 100 µM
TGI (MALME-3M melanoma): > 100 µM
TGI (SF-295 CNS): > 100 µM
TGI (K-562 leukemia): > 100 µM
TGI (HL-60(TB) leukemia): > 100 µM
TGI (IGROV1 ovarian): > 100 µM
TGI (HCC-2998 colon): > 100 µM
TGI (HCT-15 colon): > 100 µM
TGI (A498 renal): 43.4 µM
TGI (RXF 393 renal): 75.9 µM
TGI (U251 CNS): > 100 µM
TGI (PC-3 prostate): > 100 µM
TGI (LOX IMVI melanoma): > 100 µM
TGI (CAKI-1 renal): > 100 µM
TGI (SNB-19 CNS): > 100 µM
TGI (SNB-75 CNS): > 100 µM
TGI (DU-145 prostate): > 100 µM
TGI (NCI-H460 lung): > 100 µM
TGI (UO-31 renal): 73.8 µM
TGI (HCT-116 colon): > 100 µM
TGI (MDA-N): > 100 µM
TGI (SN12C renal): > 100 µM
TGI (RPMI-8226 leukemia): > 100 µM
TGI (786-0 renal): > 100 µM
TGI (HOP-62 NSCLC): > 100 µM
TGI (OVCAR-5 ovarian): > 100 µM
TGI (ACHN renal): > 100 µM
TGI (SW-620 colon): 82.4 µM
TGI (CCRF-CEM leukemia): > 100 µM
TGI (NCI/ADR-RES ovarian): > 100 µM
TGI (OVCAR-3 ovarian): > 100 µM
TGI (COLO 205 colon): > 100 µM
TGI (MOLT-4 leukemia): 76.6 µM
TGI (MDA-MB-231 breast): > 100 µM
TGI (UACC-62 melanoma): 76.3 µM
TGI (SK-MEL-28 melanoma): > 100 µM
TGI (MDA-MB-435): 44.1 µM
TGI (SK-MEL-2 melanoma): 67.3 µM
TGI (KM12 colon): > 100 µM
TGI (MCF7 breast): > 100 µM
TGI (HS 578T breast): 76.9 µM
TGI (A549 NSCLC): > 100 µM
TGI (NCI-H23 lung): > 100 µM
TGI (SF-539 CNS): > 100 µM
TGI (HT29 colon): > 100 µM
TGI (M14 melanoma): 74.6 µM

CCCCC[C@H](O)[C@H](C)C=C1SCCCS1
TGI (TK-10 renal): > 100 µM
TGI (HOP-92 NSCLC): > 100 µM
TGI (SK-OV-3 ovarian): > 100 µM
TGI (T-47D breast): > 100 µM
TGI (OVCAR-4 ovarian): > 100 µM
TGI (NCI-H522 lung): > 100 µM
TGI (SR leukemia): > 100 µM
TGI (SK-MEL-5 melanoma): > 100 µM
TGI (BT-549 breast): > 100 µM
TGI (SF-268 CNS): > 100 µM
TGI (UACC-257 melanoma): > 100 µM
TGI (MALME-3M melanoma): > 100 µM
TGI (SF-295 CNS): > 100 µM
TGI (K-562 leukemia): > 100 µM
TGI (HL-60(TB) leukemia): > 100 µM
TGI (IGROV1 ovarian): > 100 µM
TGI (HCC-2998 colon): > 100 µM
TGI (NCI-H226 lung): > 100 µM
TGI (HCT-15 colon): > 100 µM
TGI (A498 renal): > 100 µM
TGI (RXF 393 renal): > 100 µM
TGI (U251 CNS): > 100 µM
TGI (PC-3 prostate): > 100 µM
TGI (LOX IMVI melanoma): > 100 µM
TGI (CAKI-1 renal): > 100 µM
TGI (SNB-19 CNS): > 100 µM
TGI (SNB-75 CNS): > 100 µM
TGI (DU-145 prostate): > 100 µM
TGI (UO-31 renal): > 100 µM
TGI (HCT-116 colon): > 100 µM
TGI (EKVX NSCLC): > 100 µM
TGI (MDA-N): > 100 µM
TGI (OVCAR-8 ovarian): > 100 µM
TGI (SN12C renal): > 100 µM
TGI (RPMI-8226 leukemia): > 100 µM
TGI (786-0 renal): > 100 µM
TGI (HOP-62 NSCLC): > 100 µM
TGI (OVCAR-5 ovarian): > 100 µM
TGI (ACHN renal): > 100 µM
TGI (SW-620 colon): > 100 µM
TGI (CCRF-CEM leukemia): > 100 µM
TGI (NCI/ADR-RES ovarian): > 100 µM
TGI (OVCAR-3 ovarian): > 100 µM
TGI (COLO 205 colon): > 100 µM
TGI (MOLT-4 leukemia): > 100 µM
TGI (MDA-MB-231 breast): > 100 µM
TGI (UACC-62 melanoma): > 100 µM
TGI (SK-MEL-28 melanoma): > 100 µM
TGI (MDA-MB-435): > 100 µM
TGI (SK-MEL-2 melanoma): > 100 µM
TGI (KM12 colon): > 100 µM
TGI (MCF7 breast): > 100 µM
TGI (HS 578T breast): > 100 µM
TGI (A549 NSCLC): > 100 µM
TGI (NCI-H23 lung): > 100 µM
TGI (HT29 colon): > 100 µM
TGI (M14 melanoma): > 100 µM
